{
  "source": "the CheMixHub ionic liquid set",
  "test": "xn = mol fraction of the nth substance listed",
  "details": "100 kPa",
  "note": "± gives the uncertainty stated by the source.",
  "data": [
    {"smiles": "CCCCCCCCCCCCCC[P+](CCCCCC)(CCCCCC)CCCCCC.[c-]1nc[nH]n1", "note": "+ CCCCCC[n+]1ccn(C)c1.O=S(=O)([N-]S(=O)(=O)C(F)(F)F)C(F)(F)F", "values": [
      {"measurement": "viscosity", "setting": "278.15 K, x2 = 0.1", "value": "5162 ± 770", "unit": "mPa·s"},
      {"measurement": "viscosity", "setting": "278.15 K, x2 = 0.195", "value": "4777 ± 700", "unit": "mPa·s"},
      {"measurement": "viscosity", "setting": "278.15 K, x2 = 0.282", "value": "4094 ± 600", "unit": "mPa·s"},
      {"measurement": "viscosity", "setting": "278.15 K, x2 = 0.378", "value": "3093 ± 440", "unit": "mPa·s"},
      {"measurement": "viscosity", "setting": "278.15 K, x2 = 0.493", "value": "2209 ± 310", "unit": "mPa·s"},
      {"measurement": "viscosity", "setting": "278.15 K, x2 = 0.6", "value": "1397 ± 190", "unit": "mPa·s"},
      {"measurement": "viscosity", "setting": "278.15 K, x2 = 0.693", "value": "910 ± 120", "unit": "mPa·s"},
      {"measurement": "viscosity", "setting": "278.15 K, x2 = 0.792", "value": "612 ± 79", "unit": "mPa·s"},
      {"measurement": "viscosity", "setting": "278.15 K, x2 = 0.893", "value": "325 ± 41", "unit": "mPa·s"},
      {"measurement": "viscosity", "setting": "283.15 K, x2 = 0.1", "value": "3302 ± 470", "unit": "mPa·s"},
      {"measurement": "viscosity", "setting": "283.15 K, x2 = 0.195", "value": "3062 ± 440", "unit": "mPa·s"},
      {"measurement": "viscosity", "setting": "283.15 K, x2 = 0.282", "value": "2612 ± 370", "unit": "mPa·s"},
      {"measurement": "viscosity", "setting": "283.15 K, x2 = 0.378", "value": "1992 ± 280", "unit": "mPa·s"},
      {"measurement": "viscosity", "setting": "283.15 K, x2 = 0.493", "value": "1445 ± 200", "unit": "mPa·s"},
      {"measurement": "viscosity", "setting": "283.15 K, x2 = 0.6", "value": "940 ± 120", "unit": "mPa·s"},
      {"measurement": "viscosity", "setting": "283.15 K, x2 = 0.693", "value": "619 ± 80", "unit": "mPa·s"},
      {"measurement": "viscosity", "setting": "283.15 K, x2 = 0.792", "value": "424 ± 54", "unit": "mPa·s"},
      {"measurement": "viscosity", "setting": "283.15 K, x2 = 0.893", "value": "235 ± 29", "unit": "mPa·s"},
      {"measurement": "viscosity", "setting": "288.15 K, x2 = 0.1", "value": "2162 ± 300", "unit": "mPa·s"},
      {"measurement": "viscosity", "setting": "288.15 K, x2 = 0.195", "value": "2000 ± 280", "unit": "mPa·s"},
      {"measurement": "viscosity", "setting": "288.15 K, x2 = 0.282", "value": "1719 ± 240", "unit": "mPa·s"},
      {"measurement": "viscosity", "setting": "288.15 K, x2 = 0.378", "value": "1317 ± 180", "unit": "mPa·s"},
      {"measurement": "viscosity", "setting": "288.15 K, x2 = 0.493", "value": "970 ± 130", "unit": "mPa·s"},
      {"measurement": "viscosity", "setting": "288.15 K, x2 = 0.6", "value": "641 ± 83", "unit": "mPa·s"},
      {"measurement": "viscosity", "setting": "288.15 K, x2 = 0.693", "value": "431 ± 55", "unit": "mPa·s"},
      {"measurement": "viscosity", "setting": "288.15 K, x2 = 0.792", "value": "301 ± 38", "unit": "mPa·s"},
      {"measurement": "viscosity", "setting": "288.15 K, x2 = 0.893", "value": "174 ± 22", "unit": "mPa·s"},
      {"measurement": "viscosity", "setting": "293.15 K, x2 = 0.1", "value": "1458 ± 200", "unit": "mPa·s"},
      {"measurement": "viscosity", "setting": "293.15 K, x2 = 0.195", "value": "1349 ± 180", "unit": "mPa·s"},
      {"measurement": "viscosity", "setting": "293.15 K, x2 = 0.282", "value": "1162 ± 160", "unit": "mPa·s"},
      {"measurement": "viscosity", "setting": "293.15 K, x2 = 0.378", "value": "900 ± 120", "unit": "mPa·s"},
      {"measurement": "viscosity", "setting": "293.15 K, x2 = 0.493", "value": "677 ± 88", "unit": "mPa·s"},
      {"measurement": "viscosity", "setting": "293.15 K, x2 = 0.6", "value": "452 ± 58", "unit": "mPa·s"},
      {"measurement": "viscosity", "setting": "293.15 K, x2 = 0.693", "value": "308 ± 39", "unit": "mPa·s"},
      {"measurement": "viscosity", "setting": "293.15 K, x2 = 0.792", "value": "220 ± 27", "unit": "mPa·s"},
      {"measurement": "viscosity", "setting": "293.15 K, x2 = 0.893", "value": "132 ± 16", "unit": "mPa·s"},
      {"measurement": "viscosity", "setting": "298.15 K, x2 = 0.1", "value": "1013 ± 140", "unit": "mPa·s"},
      {"measurement": "viscosity", "setting": "298.15 K, x2 = 0.195", "value": "930 ± 120", "unit": "mPa·s"},
      {"measurement": "viscosity", "setting": "298.15 K, x2 = 0.282", "value": "810 ± 110", "unit": "mPa·s"},
      {"measurement": "viscosity", "setting": "298.15 K, x2 = 0.378", "value": "633 ± 82", "unit": "mPa·s"},
      {"measurement": "viscosity", "setting": "298.15 K, x2 = 0.493", "value": "485 ± 62", "unit": "mPa·s"},
      {"measurement": "viscosity", "setting": "298.15 K, x2 = 0.6", "value": "329 ± 41", "unit": "mPa·s"},
      {"measurement": "viscosity", "setting": "298.15 K, x2 = 0.693", "value": "227 ± 28", "unit": "mPa·s"},
      {"measurement": "viscosity", "setting": "298.15 K, x2 = 0.792", "value": "165 ± 20", "unit": "mPa·s"},
      {"measurement": "viscosity", "setting": "298.15 K, x2 = 0.893", "value": "103 ± 13", "unit": "mPa·s"},
      {"measurement": "viscosity", "setting": "303.15 K, x2 = 0.1", "value": "720 ± 94", "unit": "mPa·s"},
      {"measurement": "viscosity", "setting": "303.15 K, x2 = 0.195", "value": "664 ± 86", "unit": "mPa·s"},
      {"measurement": "viscosity", "setting": "303.15 K, x2 = 0.282", "value": "579 ± 75", "unit": "mPa·s"},
      {"measurement": "viscosity", "setting": "303.15 K, x2 = 0.378", "value": "456 ± 58", "unit": "mPa·s"},
      {"measurement": "viscosity", "setting": "303.15 K, x2 = 0.493", "value": "355 ± 45", "unit": "mPa·s"},
      {"measurement": "viscosity", "setting": "303.15 K, x2 = 0.6", "value": "245 ± 30", "unit": "mPa·s"},
      {"measurement": "viscosity", "setting": "303.15 K, x2 = 0.693", "value": "171 ± 21", "unit": "mPa·s"},
      {"measurement": "viscosity", "setting": "303.15 K, x2 = 0.792", "value": "127 ± 16", "unit": "mPa·s"},
      {"measurement": "viscosity", "setting": "303.15 K, x2 = 0.893", "value": "81 ± 10", "unit": "mPa·s"},
      {"measurement": "viscosity", "setting": "308.15 K, x2 = 0.1", "value": "524 ± 67", "unit": "mPa·s"},
      {"measurement": "viscosity", "setting": "308.15 K, x2 = 0.195", "value": "484 ± 62", "unit": "mPa·s"},
      {"measurement": "viscosity", "setting": "308.15 K, x2 = 0.282", "value": "422 ± 54", "unit": "mPa·s"},
      {"measurement": "viscosity", "setting": "308.15 K, x2 = 0.378", "value": "337 ± 42", "unit": "mPa·s"},
      {"measurement": "viscosity", "setting": "308.15 K, x2 = 0.493", "value": "267 ± 33", "unit": "mPa·s"},
      {"measurement": "viscosity", "setting": "308.15 K, x2 = 0.6", "value": "186 ± 23", "unit": "mPa·s"},
      {"measurement": "viscosity", "setting": "308.15 K, x2 = 0.693", "value": "132 ± 16", "unit": "mPa·s"},
      {"measurement": "viscosity", "setting": "308.15 K, x2 = 0.792", "value": "99 ± 12", "unit": "mPa·s"},
      {"measurement": "viscosity", "setting": "308.15 K, x2 = 0.893", "value": "65 ± 8", "unit": "mPa·s"},
      {"measurement": "viscosity", "setting": "313.15 K, x2 = 0.1", "value": "389 ± 49", "unit": "mPa·s"},
      {"measurement": "viscosity", "setting": "313.15 K, x2 = 0.195", "value": "359 ± 45", "unit": "mPa·s"},
      {"measurement": "viscosity", "setting": "313.15 K, x2 = 0.282", "value": "314 ± 39", "unit": "mPa·s"},
      {"measurement": "viscosity", "setting": "313.15 K, x2 = 0.378", "value": "253 ± 31", "unit": "mPa·s"},
      {"measurement": "viscosity", "setting": "313.15 K, x2 = 0.493", "value": "204 ± 25", "unit": "mPa·s"},
      {"measurement": "viscosity", "setting": "313.15 K, x2 = 0.6", "value": "145 ± 18", "unit": "mPa·s"},
      {"measurement": "viscosity", "setting": "313.15 K, x2 = 0.693", "value": "104 ± 13", "unit": "mPa·s"},
      {"measurement": "viscosity", "setting": "313.15 K, x2 = 0.792", "value": "79 ± 10", "unit": "mPa·s"},
      {"measurement": "viscosity", "setting": "313.15 K, x2 = 0.893", "value": "54 ± 7", "unit": "mPa·s"},
      {"measurement": "viscosity", "setting": "318.15 K, x2 = 0.1", "value": "296 ± 37", "unit": "mPa·s"},
      {"measurement": "viscosity", "setting": "318.15 K, x2 = 0.195", "value": "273 ± 34", "unit": "mPa·s"},
      {"measurement": "viscosity", "setting": "318.15 K, x2 = 0.282", "value": "239 ± 30", "unit": "mPa·s"},
      {"measurement": "viscosity", "setting": "318.15 K, x2 = 0.378", "value": "194 ± 24", "unit": "mPa·s"},
      {"measurement": "viscosity", "setting": "318.15 K, x2 = 0.493", "value": "159 ± 19", "unit": "mPa·s"},
      {"measurement": "viscosity", "setting": "318.15 K, x2 = 0.6", "value": "115 ± 14", "unit": "mPa·s"},
      {"measurement": "viscosity", "setting": "318.15 K, x2 = 0.693", "value": "83 ± 10", "unit": "mPa·s"},
      {"measurement": "viscosity", "setting": "318.15 K, x2 = 0.792", "value": "64 ± 8", "unit": "mPa·s"},
      {"measurement": "viscosity", "setting": "323.15 K, x2 = 0.1", "value": "229 ± 28", "unit": "mPa·s"},
      {"measurement": "viscosity", "setting": "323.15 K, x2 = 0.195", "value": "211 ± 26", "unit": "mPa·s"},
      {"measurement": "viscosity", "setting": "323.15 K, x2 = 0.282", "value": "185 ± 23", "unit": "mPa·s"},
      {"measurement": "viscosity", "setting": "323.15 K, x2 = 0.378", "value": "152 ± 19", "unit": "mPa·s"},
      {"measurement": "viscosity", "setting": "323.15 K, x2 = 0.493", "value": "127 ± 15", "unit": "mPa·s"},
      {"measurement": "viscosity", "setting": "323.15 K, x2 = 0.6", "value": "93 ± 11", "unit": "mPa·s"},
      {"measurement": "viscosity", "setting": "323.15 K, x2 = 0.693", "value": "67 ± 8", "unit": "mPa·s"},
      {"measurement": "viscosity", "setting": "323.15 K, x2 = 0.792", "value": "53 ± 6", "unit": "mPa·s"}
    ]}
  ]
}
